The record followed here is patent publication US9957230B2, “Synergistic compositions” (Cadila Healthcare Limited, priority 2013, dated 2018).

Holding throughout (format): in vivo
Assay [1] has as its system db/db mice. In words: Oral glucose tolerance test in db/db mice (studies VII and VIII). The note with it: Compound Ia 0.1 mg/kg, Glimepiride 2 mg/kg p.o.; for % improvement in AUC glucose vs control: Table 31 and text, OGTT after 7 days of treatment. An excerpt: (§1) In this experiment, 49 db/db mice of 12-16 week were divided into 7 groups and as per their day 0 serum glucose levels. […] Detail treatments and routes of administrations were mentioned in Table no. 27. The treatment was given once daily for 7 days.
(§2) The blood was collected by retro-orbital sinus puncture method under light ether anesthesia on day 0 (pretreatment) and on day 6 (one hour after dose administration) for non-fasting glucose analysis and oral glucose tolerance test (OGTT) was performed on day 7 of the treatment in fasting condition. After blood collection serum was separated and analyzed glucose analysis using Spectra max and commercial diagnostic kits. The OGTT procedure followed is as given below—
Oral Glucose Tolerance Test (OGTT): One day before OGTT all animals were kept on overnight fasting and on the day of OGTT, day 7 of the treatment each animal was dosed with a single dose of vehicle/test compounds administered orally and 60-min post dosing blood was collected (0 min) and glucose load (2 gm/kg/10 ml) administered per orally. Blood was then collected at time points corresponding to 30, 60 and 120 min after glucose load administration. Serum was separated and analyzed for glucose using Spectra max and commercial diagnostic kits.
(§3) The calculation for antidiabetic activity i.e. effect on serum glucose and improvement in glucose Area Under Curve (AUC) was calculated using the excel sheet and Graph Pad Prism software. The day-0 and day-6 glucose values of vehicle control and treatment were considered for calculating the effect on serum glucose. The effect on glucose AUC was calculated using the OGTT glucose levels at different time points and the improvement in glucose AUC were the reduction in glucose AUC after the treatment during OGTT.

Assay [2] relates to db/db mice. In words: Antidiabetic activity with Exenatide or Glimepiride in db/db mice (studies VII and VIII): non-fasting serum glucose. The note with it: Compound Ia 0.1 mg/kg.
Excerpt: The in-vivo efficacy for antidiabetic activity was done in male and female db/db mice of 12-16 weeks of age. Generally obese and diabetic animals are insulin resistant and have abnormalities in glucose and lipid metabolism. The development of diabetes and beta cell dysfunction in these animal models closely parallels the pathophysiology of the disease condition in humans. […] They progressively develop into insulinopenia with age, a feature commonly observed in last stage of type-2 diabetes, when blood sugar levels are insufficiently controlled. Therefore, this genetic model proves to be suitable for predicting the likely therapeutic benefit of novel euglycemic agents in human type-2 diabetes.
as §1, §2, §3

In assay [3] the test system is db/db mice. The experiment in a line: Oral glucose tolerance test in db/db mice (studies I and II). The note with it: Compound (Ia) 0.1 mg/kg; for AUC Glucose: OGTT day 14, fasting, glucose load 2 gm/kg. An excerpt: 8. […] 8. The treatment was given oral gavages once daily for 14 days.
The OGTT procedure followed is as given below—

For assay [4], the system named is db/db mice. In words: Antidiabetic activity in db/db mice (studies I and II): non-fasting serum glucose. The note with it: Compound (Ia) 0.1 mg/kg. An excerpt: The in-vivo efficacy for antidiabetic activity was done for (I) and (II) individually with db/db mice of 13-14 weeks of age.
8. […] 8. The treatment was given oral gavages once daily for 14 days. […]

For another assay, the system named is Swiss albino mice. The experiment in a line: Triglyceride lowering effects of various salts in Swiss albino mice. The note with it: dose equivalent to 1 mg/kg free acid; for Serum triglycerides (mg/dl) Day 0: Day 0 (pretreatment); for Serum triglycerides (mg/dl) Day 0 / Serum triglycerides (mg/dl) Day 6: male Swiss albino mice; for Serum triglycerides (mg/dl) Day 6: Day 6, one hr after dose; for % Change Vs control: serum triglycerides vs vehicle control after 6 days; for % Change Day 6 vs Day 0: serum triglycerides. The procedure:
Comparative Efficacy Study of (Triglyceride Lowering Effects) of Various Salts of Compound (Ia) in Swiss Albino Mice.
The in-vivo efficacy of compound (I) was evaluated in Swiss albino mice. Anti-dyslipidemic drugs have been reported to lower circulating levels of triglyceride in Swiss albino mice through their effect on genes involved in the peroxisomal fatty acid beta oxidation via PPAR alpha agonism. Therefore, this species is preferred for evaluation of their efficacy in lowering circulating triglyceride (TG) levels.
In this experiment, six to eight week old male Swiss albino mice were issued and kept for acclimatization. Near the end of the acclimatization period, animals judged to be suitable for testing were bled under light ether anesthesia and serum samples were analyzed for Serum triglyceride levels.
Test compound was formulated at specified doses in vehicle (10% Polyethylene glycol (PEG) 400+90% of 0.5% Sodium Carboxy methyl cellulose). The animals were dosed orally, once daily in the morning during six days, starting from next day of grouping with vehicle or test compound. The animals were weighed prior to dosing, and based on these weights; the volume of administration was calculated. The volume of formulation administered to each mouse was 10 ml/kg body weight.
On day 6 one hr after the dose administration, blood (0.25 ml) was collected from retro-orbital sinus of the anaesthetized animals. Serum was separated by centrifugation. Serum was analyzed for triglyceride levels. Analysis for serum triglyceride levels was performed using a Spectrophotometer and commercially available kit. Calculations for determination of % change and % reduction in serum TG levels were performed using MS Excels sheet.

[5] abbreviates: Table 3, oral once daily 6 days.
The mark [6] stands for this setting: Table 5, oral once daily 6 days.

As for `CCC1=C(C)CN(C(=O)NCCc2ccc(S(=O)(=O)NC(=O)N[C@H]3CC[C@H](C)CC3)cc2)C1=O` [Glimepiride, reference compound], the “AUC Glucose” value with db/db mice [1] (Table 31, OGTT day 7, fasting, glucose load 2 gm/kg) amounted to 62529.0 mg·min/dL. The “% improvement in AUC glucose vs control” value with db/db mice [1] is listed as −2.6%; in the assay with db/db mice [1] (listed as glimepiride) it was “does not any improvement”. Besides, the “Serum Glucose (mg/dl) Day 0” value in the assay on db/db mice [2] (Table 30, Day 0 (pretreatment), male and female db/db mice, Glimepiride 2 mg/kg p.o. once daily) was determined as 402.0 mg/dL. In the assay with db/db mice [2] (Table 30, Day 6, one hour after dose, non-fasting, Glimepiride 2 mg/kg p.o. once daily), the “Serum Glucose (mg/dl) Day 6” value amounted to 506.7 mg/dL. Also, in the assay with db/db mice [2] (Table 30, serum glucose, Glimepiride 2 mg/kg p.o.), the “% Change Day 6 vs Day 0” value was 26.9%. In the assay with db/db mice [2] (Table 30 and text, serum glucose day 6 vs vehicle control, Glimepiride 2 mg/kg p.o.), the “% Change Vs control” value was 10.1%.
Regarding `CN(C)C(=N)N=C(N)N` [Metformin, 1,1-Dimethylbiguanidine, reference compound], the “% improvement in AUC glucose vs control” value in the assay with db/db mice [3] (Table 12, OGTT after 14 days of treatment, Metformin 150 mg/kg p.o.) is on record as 20.4%. Also, the “AUC Glucose” value in the assay with db/db mice [3] (Table 12, Metformin 150 mg/kg p.o.) turned out to be 45255.9 mg·min/dL.
As for `N[C@@H](CC(=O)N1CCn2c(nnc2C(F)(F)F)C1)Cc1cc(F)c(F)cc1F` [Sitagliptin, reference compound], in the assay with db/db mice [4] (Table 9, Day 0 (pretreatment), female db/db mice, Sitagliptin 3 mg/kg p.o. once daily), the “Serum Glucose (mg/dl) Day 0” value came out at 407.9 ± 34.5 mg/dL. In addition, the “Serum Glucose (mg/dl) Day 12” value in the assay on db/db mice [4] (Table 9, Day 12, non-fasting, female db/db mice, Sitagliptin 3 mg/kg p.o. once daily) worked out at 485.3 ± 50.5 mg/dL. Moreover, the “% Change Vs control” value with db/db mice [4] (Table 9, serum glucose day 12 vs vehicle control, Sitagliptin 3 mg/kg p.o. once daily) stood at 18.5 ± 5.0%. Further, the “% Change Day 12 vs Day 0” value with db/db mice [4] (Table 9, serum glucose, Sitagliptin 3 mg/kg p.o. once daily) was determined as 18.3 ± 5.0%. For the same molecule, in the assay with db/db mice [4] (female db/db mice, Sitagliptin 3 mg/kg, Metformin 150 mg/kg), the “reduction in serum glucose” value is listed as “does not show any reduction rather it has shown slight increase in serum glucose”. Moreover, the “AUC Glucose” value with db/db mice [3] (Table 10, Sitagliptin 3 mg/kg p.o.) was determined as 64655.9 ± 6300.6 mg·min/dL.
Take “Benzenepropanoic acid, α-ethoxy-4-[2-[2-methyl-5-[4-(methylthio) phenyl]-1H -pyrrol-1-yl] ethoxy]-, magnesium salt [Compound (Ia)]”: the “Serum triglycerides (mg/dl) Day 0” value in the assay on Swiss albino mice (setting [5]) came to 117.7 ± 13.8 mg/dL; with Swiss albino mice (setting [6]), 91.4 ± 8.8 mg/dL; in the assay with Swiss albino mice (Table 7, po once daily 6 days), 111.1 ± 8.4 mg/dL. The “Serum triglycerides (mg/dl) Day 6” value in the assay on Swiss albino mice (setting [5]) was determined as 38.2 ± 4.1 mg/dL; in the assay on Swiss albino mice (setting [6]) it was 37.4 ± 3.2 mg/dL; with Swiss albino mice (Table 7, po once daily 6 days) it was 36.9 ± 2.9 mg/dL. For the same molecule, the “% Change Vs control” value is listed as −66.1 ± 4.2% with Swiss albino mice (Table 3, oral); −60.5 ± 3.5% with Swiss albino mice (Table 5, oral); −61.5 ± 4.6% in the assay with Swiss albino mice (Table 7, po). The “% Change Day 6 vs Day 0” value is on record as −66.5 ± 4.1% in the assay on Swiss albino mice (setting [5]); −58.3 ± 3.7% in the assay with Swiss albino mice (setting [6]); −65.5 ± 4.2% with Swiss albino mice (Table 7, po once daily 6 days).
